Experimental data as given in ChEMBL document CHEMBL4840352 (J Med Chem, 2021).
Activity calls are given as the source filed them. The rule behind the calls is not given here.

Experiments:
MOLM-13 [1] = assay: Antiproliferative activity against human MOLM-13 cells incubated for 48 hrs by CCK-8 assay; assay type: functional, cell-based; conditions: MOLM-13, 48 h
[2] = molecular target: CDK7/Cyclin H/MNAT1 (Homo sapiens) (UniProt P51946+P50613+P51948); assay: Inhibition of CDK7/cyclinH/MAT1 (unknown origin) at 1000 nM relative to control; assay type: protein-complex assay
[3] = molecular target: Serine/threonine-protein kinase 4 (Homo sapiens) (UniProt Q13043); assay: Inhibition of MST1 (unknown origin) at 1000 nM relative to control
[4] = molecular target: Proto-oncogene tyrosine-protein kinase Src (Homo sapiens) (UniProt P12931); assay: Inhibition of SRC (unknown origin) at 1000 nM relative to control
[5] = molecular target: Serine/threonine-protein kinase Chk1 (Homo sapiens) (UniProt O14757); assay: Inhibition of CHK1 (unknown origin) at 1000 nM relative to control
[6] = molecular target: Serine/threonine-protein kinase TBK1 (Homo sapiens) (UniProt Q9UHD2); assay: Inhibition of TBK1 (unknown origin) at 1000 nM relative to control
[7] = molecular target: Serine/threonine-protein kinase MARK1 (Homo sapiens) (UniProt Q9P0L2); assay: Inhibition of MARK1 (unknown origin) at 1000 nM relative to control
[8] = molecular target: ALK tyrosine kinase receptor (Homo sapiens) (UniProt Q9UM73); assay: Inhibition of ALK (unknown origin) at 1000 nM relative to control
[9] = molecular target: Tyrosine-protein kinase JAK3 (Homo sapiens) (UniProt P52333); assay: Inhibition of JAK3 (unknown origin) at 1000 nM relative to control
[10] = molecular target: Discoidin domain-containing receptor 2 (Homo sapiens) (UniProt Q16832); assay: Inhibition of DDR2 (unknown origin) at 1000 nM relative to control
[11] = molecular target: Mitogen-activated protein kinase 1 (Homo sapiens) (UniProt P28482); assay: Inhibition of ERK2 (unknown origin) at 1000 nM relative to control
[12] = molecular target: Glycogen synthase kinase-3 alpha (Homo sapiens) (UniProt P49840); assay: Inhibition of GSK3alpha (unknown origin) at 1000 nM relative to control
[13] = molecular target: Casein kinase I isoform alpha-like (Homo sapiens) (UniProt Q8N752); assay: Inhibition of CK1A1 (unknown origin) at 1000 nM relative to control
MOLM-13 [14] = assay: Induction of apoptosis in human MOLM-13 cells assessed as downregulation of Mcl-1 level at 15 nM measured upto 12 hrs by Western blot analysis; assay type: functional, cell-based; conditions: time hrs <=12
MOLM-13 [15] = assay: Induction of apoptosis in human MOLM-13 cells assessed as downregulation of Bcl-2 level at 15 nM measured upto 12 hrs by Western blot analysis; assay type: functional, cell-based; conditions: time hrs <=12
MOLM-13 [16] = assay: Induction of apoptosis in human MOLM-13 cells assessed as upregulation of cleaved caspase-3 level at 15 nM by Western blot analysis; assay type: functional, cell-based; conditions: time 0-12 hrs, TDE = time-dependent effect
[17] = tested on: Receptor-type tyrosine-protein kinase FLT3 (Homo sapiens), P36888 [UNDEFINED MUTATION]; assay: Induction of FLT3-ITD degradation in human MOLM-13 cells after 24 hrs by Western blot analysis; assay type: cell-based
[18] = tested on: Receptor-type tyrosine-protein kinase FLT3 (Homo sapiens), P36888 [UNDEFINED MUTATION]; assay: Induction of FLT3-ITD degradation in human MV4-11 cells after 24 hrs by Western blot analysis; assay type: cell-based
[19] = molecular target: Mast/stem cell growth factor receptor Kit (Homo sapiens) (UniProt P10721); assay: Induction of KIT degradation in human MV4-11 cells at 0 to 25 nM after 24 hrs by Western blot analysis; assay type: cell-based; conditions: dose 0-25 nM
[20] = molecular target: Platelet-derived growth factor receptor beta (Homo sapiens) (UniProt P09619); assay: Induction of PDGFR degradation in human MOLM-13 cells at 0 to 25 nM after 24 hrs by Western blot analysis; assay type: cell-based; conditions: dose 0-25 nM
[21] = molecular target: Receptor-type tyrosine-protein kinase FLT3 (Homo sapiens) (UniProt P36888); assay: Inhibition of FLT3 in human MV4-11 cells assessed as reduction in STAT5 phosphorylation at 15 nM by Western blot analysis; assay type: cell-based; conditions: time 0-12 hrs, TDE = time-dependent effect
[22] = molecular target: Receptor-type tyrosine-protein kinase FLT3 (Homo sapiens) (UniProt P36888); assay: Inhibition of FLT3 in human MV4-11 cells assessed as reduction in ERK phosphorylation at 15 nM by Western blot analysis; assay type: cell-based; conditions: time 0-12 hrs, TDE = time-dependent effect
[23] = molecular target: Mast/stem cell growth factor receptor Kit (Homo sapiens) (UniProt P10721); assay: Inhibition of KIT in human MV4-11 cells assessed as reduction in STAT3 phosphorylation at 5 to 25 nM after 24 hrs by Western blot analysis; assay type: cell-based; conditions: dose 5-25 nM
[24] = molecular target: Mast/stem cell growth factor receptor Kit (Homo sapiens) (UniProt P10721); assay: Inhibition of KIT in human MOLM-13 cells assessed as reduction in PI3K phosphorylation at 5 to 25 nM after 24 hrs by Western blot analysis; assay type: cell-based; conditions: dose 5-25 nM
[25] = tested on: Receptor-type tyrosine-protein kinase FLT3 (Homo sapiens), P36888 [UNDEFINED MUTATION]; assay: Induction of FLT3-ITD degradation in human MV4-11 cells at 20 nM pretreated with MG132 for 2 hrs followed compound addition for 6 hrs by Western blot analysis; assay type: cell-based
MOLM-13 [26] = assay: Reduction in intracellular ROS level in human MOLM-13 cells measured after 12 hrs by DCFH-DA probe based flow cytometry; assay type: functional, cell-based; conditions: dose 25-200 nM
MV4-11 [27] = assay: Reduction in intracellular ROS level in human MV4-11 cells measured after 12 hrs by DCFH-DA probe based flow cytometry; assay type: functional, cell-based; conditions: dose 25-200 nM
MV4-11 [28] = assay: Antitumor activity against human MV4-11 cells xenografted in NOD/SCID mouse assessed as reduction in CD45-positive cells in bone marrow at 3 mg/kg/day, iv administered for 12 days by flow cytometry analysis (reference value: 32.23 %); assay type: functional; set-up: scale not given: the % may be the effect or the level left; conditions: time 12 day
[29] = molecular target: Receptor-type tyrosine-protein kinase FLT3 (Homo sapiens) (UniProt P36888); conditions: dose 1000.0 nM
Description: Inhibition of FLT3 (unknown origin) at 1000 nM relative to control

[30] = tested on: Receptor-type tyrosine-protein kinase FLT3 (Homo sapiens), P36888 [UNDEFINED MUTATION]; conditions: dose 1000.0 nM
Description: Inhibition of FLT3 ITD mutant (unknown origin) at 1000 nM relative to control

[31] = molecular target: Platelet-derived growth factor receptor alpha (Homo sapiens) (UniProt P16234); conditions: dose 1000.0 nM
Description: Inhibition of PDGFRalpha (unknown origin) at 1000 nM relative to control

[32] = molecular target: Fibroblast growth factor receptor 1 (Homo sapiens) (UniProt P11362); conditions: dose 1000.0 nM
Description: Inhibition of FGFR1 (unknown origin) at 1000 nM relative to control

[33] = molecular target: Fibroblast growth factor receptor 2 (Homo sapiens) (UniProt P21802); conditions: dose 1000.0 nM
Description: Inhibition of FGFR2 (unknown origin) at 1000 nM relative to control

[34] = molecular target: Tyrosine-protein kinase Lck (Homo sapiens) (UniProt P06239); conditions: dose 1000.0 nM
Description: Inhibition of LCK (unknown origin) at 1000 nM relative to control

[35] = molecular target: Tyrosine-protein kinase ABL1 (Homo sapiens) (UniProt P00519); conditions: dose 1000.0 nM
Description: Inhibition of ABL (unknown origin) at 1000 nM relative to control

[36] = molecular target: Homeodomain-interacting protein kinase 1 (Homo sapiens) (UniProt Q86Z02); conditions: dose 1000.0 nM
Description: Inhibition of HIPK1 (unknown origin) at 1000 nM relative to control

[37] = molecular target: Mitogen-activated protein kinase 14 (Homo sapiens) (UniProt Q16539); conditions: dose 1000.0 nM
Mitogen-activated protein kinase 14 (Homo sapiens), sequence (Q16539 whole entry): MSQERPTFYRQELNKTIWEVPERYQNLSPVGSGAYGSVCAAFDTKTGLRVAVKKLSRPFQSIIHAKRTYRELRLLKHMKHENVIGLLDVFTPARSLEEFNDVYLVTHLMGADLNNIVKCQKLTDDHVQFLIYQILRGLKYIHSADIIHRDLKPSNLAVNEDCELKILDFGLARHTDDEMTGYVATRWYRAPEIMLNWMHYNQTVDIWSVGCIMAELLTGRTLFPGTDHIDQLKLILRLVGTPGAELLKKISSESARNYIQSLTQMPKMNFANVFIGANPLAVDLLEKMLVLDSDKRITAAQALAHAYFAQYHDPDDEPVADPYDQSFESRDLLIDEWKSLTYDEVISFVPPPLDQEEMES
Description: Inhibition of p38alpha (unknown origin) at 1000 nM relative to control

Mast/stem cell growth factor receptor Kit (Homo sapiens), sequence (P10721 whole entry): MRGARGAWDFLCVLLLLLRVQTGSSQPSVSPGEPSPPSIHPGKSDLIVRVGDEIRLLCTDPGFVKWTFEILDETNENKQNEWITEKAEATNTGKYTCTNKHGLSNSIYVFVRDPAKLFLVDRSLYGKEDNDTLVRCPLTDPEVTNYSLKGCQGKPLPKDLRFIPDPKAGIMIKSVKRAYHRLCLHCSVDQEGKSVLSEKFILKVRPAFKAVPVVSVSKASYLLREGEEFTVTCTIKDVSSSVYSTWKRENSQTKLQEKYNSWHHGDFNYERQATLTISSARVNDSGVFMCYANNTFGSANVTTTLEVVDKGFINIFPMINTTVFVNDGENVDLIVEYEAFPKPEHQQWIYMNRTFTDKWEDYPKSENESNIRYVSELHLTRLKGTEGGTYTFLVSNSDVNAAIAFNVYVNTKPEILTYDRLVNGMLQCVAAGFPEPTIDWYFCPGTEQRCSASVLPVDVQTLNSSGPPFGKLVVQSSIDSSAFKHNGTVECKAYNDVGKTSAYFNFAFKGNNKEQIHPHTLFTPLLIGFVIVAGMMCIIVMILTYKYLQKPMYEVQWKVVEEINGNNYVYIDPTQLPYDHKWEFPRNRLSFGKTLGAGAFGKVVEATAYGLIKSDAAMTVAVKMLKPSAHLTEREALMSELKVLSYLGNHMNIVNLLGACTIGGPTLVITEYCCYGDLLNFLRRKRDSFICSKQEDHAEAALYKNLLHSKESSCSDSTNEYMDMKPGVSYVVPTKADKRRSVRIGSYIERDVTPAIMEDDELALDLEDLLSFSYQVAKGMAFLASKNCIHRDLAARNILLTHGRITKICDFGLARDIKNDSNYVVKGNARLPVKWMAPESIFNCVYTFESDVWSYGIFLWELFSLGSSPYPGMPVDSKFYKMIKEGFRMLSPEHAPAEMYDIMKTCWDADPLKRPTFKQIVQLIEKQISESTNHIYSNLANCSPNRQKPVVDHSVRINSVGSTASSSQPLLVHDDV
Receptor-type tyrosine-protein kinase FLT3 (Homo sapiens), P36888 [UNDEFINED MUTATION], sequence (P36888 whole entry, looked up, change not shown): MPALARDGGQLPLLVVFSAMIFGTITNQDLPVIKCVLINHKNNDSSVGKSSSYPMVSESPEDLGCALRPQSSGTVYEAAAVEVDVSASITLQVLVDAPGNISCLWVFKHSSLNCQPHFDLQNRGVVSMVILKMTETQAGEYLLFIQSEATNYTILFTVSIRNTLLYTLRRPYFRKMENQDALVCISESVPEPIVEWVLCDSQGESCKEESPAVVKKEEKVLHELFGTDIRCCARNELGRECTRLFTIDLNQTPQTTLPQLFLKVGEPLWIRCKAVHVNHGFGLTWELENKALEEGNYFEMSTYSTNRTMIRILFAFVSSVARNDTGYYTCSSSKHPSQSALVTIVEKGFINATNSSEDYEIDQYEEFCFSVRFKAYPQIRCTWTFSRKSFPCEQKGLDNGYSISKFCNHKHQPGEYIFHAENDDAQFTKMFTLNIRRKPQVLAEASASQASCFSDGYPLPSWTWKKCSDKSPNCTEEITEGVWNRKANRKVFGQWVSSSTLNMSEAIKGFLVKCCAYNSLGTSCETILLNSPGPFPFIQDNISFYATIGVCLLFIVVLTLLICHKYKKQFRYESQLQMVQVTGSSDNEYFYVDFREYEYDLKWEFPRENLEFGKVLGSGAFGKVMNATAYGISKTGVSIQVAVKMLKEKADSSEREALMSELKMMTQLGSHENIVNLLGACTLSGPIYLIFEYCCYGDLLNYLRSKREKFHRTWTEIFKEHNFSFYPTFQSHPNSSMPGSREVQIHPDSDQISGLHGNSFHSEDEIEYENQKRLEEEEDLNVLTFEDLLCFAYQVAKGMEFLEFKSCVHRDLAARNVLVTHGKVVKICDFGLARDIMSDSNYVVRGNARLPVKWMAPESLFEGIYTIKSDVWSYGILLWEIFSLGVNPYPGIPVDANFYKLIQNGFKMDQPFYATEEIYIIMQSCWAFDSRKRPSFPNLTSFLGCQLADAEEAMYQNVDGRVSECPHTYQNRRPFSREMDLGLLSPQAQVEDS
Receptor-type tyrosine-protein kinase FLT3 (Homo sapiens), sequence (P36888 whole entry): as the sequence (P36888 whole entry, looked up, change not shown) above
Tyrosine-protein kinase JAK3 (Homo sapiens), sequence (P52333 whole entry, the tested form may be a part): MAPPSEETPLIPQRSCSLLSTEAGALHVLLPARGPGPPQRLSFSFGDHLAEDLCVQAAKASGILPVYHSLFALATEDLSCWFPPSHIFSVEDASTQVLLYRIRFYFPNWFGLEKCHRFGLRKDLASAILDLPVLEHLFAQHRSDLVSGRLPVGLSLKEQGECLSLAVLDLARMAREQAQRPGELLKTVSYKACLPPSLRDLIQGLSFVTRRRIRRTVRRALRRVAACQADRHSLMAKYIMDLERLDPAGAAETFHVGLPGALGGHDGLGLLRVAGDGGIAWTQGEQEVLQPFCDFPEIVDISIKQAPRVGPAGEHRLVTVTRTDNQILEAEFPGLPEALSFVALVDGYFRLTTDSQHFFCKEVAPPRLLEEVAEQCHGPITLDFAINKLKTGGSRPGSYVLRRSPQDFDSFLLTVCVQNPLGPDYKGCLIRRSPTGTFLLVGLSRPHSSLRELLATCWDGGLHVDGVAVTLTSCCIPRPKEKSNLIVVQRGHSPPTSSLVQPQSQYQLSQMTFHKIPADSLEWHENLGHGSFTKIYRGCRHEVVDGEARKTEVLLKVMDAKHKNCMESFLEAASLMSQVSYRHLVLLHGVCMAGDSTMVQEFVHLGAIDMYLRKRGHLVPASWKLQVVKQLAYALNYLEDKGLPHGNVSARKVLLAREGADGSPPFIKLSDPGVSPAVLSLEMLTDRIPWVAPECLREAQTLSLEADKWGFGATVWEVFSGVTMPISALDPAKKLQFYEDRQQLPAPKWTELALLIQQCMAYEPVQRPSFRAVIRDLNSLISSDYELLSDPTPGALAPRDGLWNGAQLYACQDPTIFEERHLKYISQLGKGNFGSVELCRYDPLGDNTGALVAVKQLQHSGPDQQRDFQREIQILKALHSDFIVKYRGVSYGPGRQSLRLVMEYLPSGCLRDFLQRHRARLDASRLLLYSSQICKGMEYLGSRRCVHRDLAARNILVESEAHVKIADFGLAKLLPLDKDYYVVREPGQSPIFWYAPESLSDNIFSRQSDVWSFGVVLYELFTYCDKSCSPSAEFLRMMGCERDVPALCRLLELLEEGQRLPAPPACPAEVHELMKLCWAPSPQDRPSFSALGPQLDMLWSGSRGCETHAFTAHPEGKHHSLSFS
Fibroblast growth factor receptor 1 (Homo sapiens), sequence (P11362 22-822 limits assumed): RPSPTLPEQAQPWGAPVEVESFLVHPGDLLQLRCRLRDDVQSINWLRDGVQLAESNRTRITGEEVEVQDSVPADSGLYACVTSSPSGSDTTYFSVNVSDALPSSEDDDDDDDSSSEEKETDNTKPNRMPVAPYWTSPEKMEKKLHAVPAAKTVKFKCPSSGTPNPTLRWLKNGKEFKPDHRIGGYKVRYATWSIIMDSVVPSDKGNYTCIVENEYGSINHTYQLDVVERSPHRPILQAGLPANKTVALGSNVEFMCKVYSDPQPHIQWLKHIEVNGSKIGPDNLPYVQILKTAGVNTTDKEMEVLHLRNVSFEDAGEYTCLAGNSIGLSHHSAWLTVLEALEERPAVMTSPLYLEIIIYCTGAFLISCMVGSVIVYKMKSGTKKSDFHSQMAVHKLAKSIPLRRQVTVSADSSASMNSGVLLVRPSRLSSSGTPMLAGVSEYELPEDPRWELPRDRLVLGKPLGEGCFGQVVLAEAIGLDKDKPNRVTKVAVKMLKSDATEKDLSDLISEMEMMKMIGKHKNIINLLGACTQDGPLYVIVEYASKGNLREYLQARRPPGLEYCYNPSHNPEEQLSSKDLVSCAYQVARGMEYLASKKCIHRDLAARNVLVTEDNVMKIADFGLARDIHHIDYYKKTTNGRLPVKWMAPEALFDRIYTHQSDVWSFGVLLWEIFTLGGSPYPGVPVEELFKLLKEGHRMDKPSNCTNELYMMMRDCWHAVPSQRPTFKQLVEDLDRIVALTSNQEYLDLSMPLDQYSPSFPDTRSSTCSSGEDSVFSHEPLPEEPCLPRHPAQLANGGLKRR
Serine/threonine-protein kinase TBK1 (Homo sapiens), sequence (Q9UHD2 whole entry): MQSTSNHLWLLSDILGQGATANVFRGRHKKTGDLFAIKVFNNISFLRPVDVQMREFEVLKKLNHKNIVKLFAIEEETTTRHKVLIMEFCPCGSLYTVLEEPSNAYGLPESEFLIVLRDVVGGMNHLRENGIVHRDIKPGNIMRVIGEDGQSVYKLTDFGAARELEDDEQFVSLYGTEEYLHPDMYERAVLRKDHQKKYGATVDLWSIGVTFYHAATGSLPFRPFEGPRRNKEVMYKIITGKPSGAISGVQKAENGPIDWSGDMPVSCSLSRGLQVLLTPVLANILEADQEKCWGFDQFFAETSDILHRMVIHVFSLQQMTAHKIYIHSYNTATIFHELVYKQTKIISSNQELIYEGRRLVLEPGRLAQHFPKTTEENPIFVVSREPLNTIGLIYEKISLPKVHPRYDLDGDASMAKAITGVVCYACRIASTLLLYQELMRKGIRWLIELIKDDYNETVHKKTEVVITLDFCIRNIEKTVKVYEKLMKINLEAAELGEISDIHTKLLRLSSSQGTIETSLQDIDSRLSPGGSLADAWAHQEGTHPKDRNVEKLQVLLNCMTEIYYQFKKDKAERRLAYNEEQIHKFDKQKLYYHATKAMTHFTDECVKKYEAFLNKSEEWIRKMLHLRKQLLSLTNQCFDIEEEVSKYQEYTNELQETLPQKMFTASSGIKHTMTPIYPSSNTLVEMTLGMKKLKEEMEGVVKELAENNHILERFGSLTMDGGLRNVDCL

- IC50 (MOLM-13 [1]): 9.5 nM
- inhibition [2]: 0%
- inhibition [3]: 32%
- inhibition [4]: 37%
- inhibition [5]: 26%
- inhibition [6]: 22%
- inhibition [7]: 17%
- inhibition [8]: 25%
- inhibition [9]: 1%
- inhibition [10]: 17%
- inhibition [11]: 38%
- inhibition [12]: 3%
- inhibition [13]: 1%
- Activity [17]: Dose-Dependent Effect
- Activity [18]: Dose-Dependent Effect
- Activity [19]: Active
- Activity [20]: Active
- inhibition [21]: Tde
- inhibition [22]: Tde
- inhibition [23]: Active
- inhibition [24]: Active
- Activity [25]: inactive
- inhibition [29]: 93%
- inhibition [30]: 98%
- inhibition [31]: 82%
- inhibition [32]: 17%
- inhibition [33]: 34%
- inhibition [34]: 16%
- inhibition [35]: 7%
- inhibition [36]: 5%
- inhibition [37]: 12%
SMILES: Nc1c(-c2nc3cc(N4CCN(C(=O)CCCCCNc5cccc6c5C(=O)N(C5CCC(=O)NC5=O)C6=O)CC4)ccc3[nH]2)c(=O)[nH]c2cccc(F)c12 (configuration not stated)
- Activity (MOLM-13 [14]): Active
- Activity (MOLM-13 [15]): Active
- Activity (MOLM-13 [16]): Tde
- Activity (MOLM-13 [26]): Dose-Dependent Effect
- Activity (MV4-11 [27]): Dose-Dependent Effect
- Activity (MV4-11 [28]): 5.19%
